Assay results from US11180494B2, “Substituted amino acids as integrin inhibitors” (Pliant Therapeutics, Inc., priority 2018, dated 2021).

Molecular target: human integrin αvβ6 (Homo sapiens (Human), UniProt P06756+P18564)
Assay: Proximity-based integrin receptor binding assay (ALPHASCREEN) for inhibitor potency
Settings: inhibition of binding of TGF-b1 LAP to human integrin αvβ6, values given in ranges
Method: To gauge the potency of inhibitors of binding to human integrin αvβ6, inhibitor compounds and integrin were incubated together with TGF-b1 LAP and biotinylated anti-LAP antibody plus acceptor and donor beads, following the manufacture's recommendations. The donor beads were coated with streptavidin. […] All incubations occurred at room temperatures in 50 mM Tris-HCl, pH 7.5, 0.1% BSA supplemented with 1 mM each CaCl2 and MgCl2.
The order of reagent addition was as follows:
1. Alpha-v-beta-6 integrin, test inhibitor compound, LAP, biotinylated anti-LAP antibody and acceptor beads were all added together.
2. After 2 hours, donor beads were added. After another 30 minute incubation, samples were then read.
Integrin binding was evaluated by exciting donor beads at 680 nm, and measuring the fluorescent signal produced, between 520-620 nm, using a Biotek Instruments (Winooski, Vt., USA) SynergyNeo2 multimode plate reader. […] Data analysis for IC50 determinations was carried out by nonlinear four parameter logistic regression analysis using Dotmatics ELN Software (Core Informatics Inc., Branford, Conn.).

Sequence of human integrin αvβ6 (P06756 31-992): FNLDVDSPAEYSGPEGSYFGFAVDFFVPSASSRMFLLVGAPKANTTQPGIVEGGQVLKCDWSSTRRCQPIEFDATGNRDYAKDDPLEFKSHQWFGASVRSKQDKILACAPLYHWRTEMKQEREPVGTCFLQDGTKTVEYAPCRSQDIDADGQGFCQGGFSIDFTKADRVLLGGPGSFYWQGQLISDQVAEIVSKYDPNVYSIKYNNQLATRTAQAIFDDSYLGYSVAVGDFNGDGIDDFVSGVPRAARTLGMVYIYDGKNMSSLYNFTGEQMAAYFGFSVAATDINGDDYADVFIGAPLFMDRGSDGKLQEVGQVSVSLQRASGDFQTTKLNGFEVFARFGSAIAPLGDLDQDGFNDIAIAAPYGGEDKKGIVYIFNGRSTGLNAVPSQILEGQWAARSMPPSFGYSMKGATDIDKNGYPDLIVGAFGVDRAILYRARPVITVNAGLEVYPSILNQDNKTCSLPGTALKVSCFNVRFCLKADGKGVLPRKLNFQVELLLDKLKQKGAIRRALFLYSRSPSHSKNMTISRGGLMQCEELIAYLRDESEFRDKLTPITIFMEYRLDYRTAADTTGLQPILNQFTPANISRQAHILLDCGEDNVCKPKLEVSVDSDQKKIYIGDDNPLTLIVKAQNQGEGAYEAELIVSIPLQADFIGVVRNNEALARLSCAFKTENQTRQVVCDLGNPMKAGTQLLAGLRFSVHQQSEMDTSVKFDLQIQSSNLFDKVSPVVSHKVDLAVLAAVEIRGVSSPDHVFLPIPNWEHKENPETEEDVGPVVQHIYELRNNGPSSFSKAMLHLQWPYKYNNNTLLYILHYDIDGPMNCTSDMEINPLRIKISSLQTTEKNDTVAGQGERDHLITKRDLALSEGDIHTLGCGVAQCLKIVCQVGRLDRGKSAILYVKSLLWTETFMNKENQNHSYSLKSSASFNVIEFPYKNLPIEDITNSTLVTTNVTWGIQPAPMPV
Sequence of human integrin αvβ6 (P18564 22-707): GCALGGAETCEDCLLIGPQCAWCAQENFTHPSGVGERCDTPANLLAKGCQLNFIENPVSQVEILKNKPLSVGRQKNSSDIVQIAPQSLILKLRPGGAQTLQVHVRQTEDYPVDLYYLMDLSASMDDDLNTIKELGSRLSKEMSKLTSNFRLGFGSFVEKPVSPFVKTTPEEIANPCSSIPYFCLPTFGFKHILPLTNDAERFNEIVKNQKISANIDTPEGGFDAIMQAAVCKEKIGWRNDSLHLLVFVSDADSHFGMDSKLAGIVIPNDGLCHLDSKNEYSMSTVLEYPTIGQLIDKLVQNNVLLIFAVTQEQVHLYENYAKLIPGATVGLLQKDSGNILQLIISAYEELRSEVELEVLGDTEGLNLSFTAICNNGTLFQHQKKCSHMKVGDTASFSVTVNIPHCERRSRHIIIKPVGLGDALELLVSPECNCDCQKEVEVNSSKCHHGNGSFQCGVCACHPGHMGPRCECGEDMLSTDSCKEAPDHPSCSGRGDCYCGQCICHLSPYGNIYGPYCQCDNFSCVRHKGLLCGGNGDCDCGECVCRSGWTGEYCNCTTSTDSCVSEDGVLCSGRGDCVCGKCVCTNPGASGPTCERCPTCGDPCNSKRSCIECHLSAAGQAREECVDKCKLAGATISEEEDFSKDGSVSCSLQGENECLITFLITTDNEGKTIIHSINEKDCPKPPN

Compound	IC50	further results
O=C(NC(CCO[C@H]1C[C@H](CCc2ccc3c(n2)NCCC3)C1)C(=O)O)c1ccc(C2CC2)cc1 (stereo partly drawn) [Compound 57, N-(4-cyclopropylbenzoyl)-O-(trans-3-(2-(5,6,7,8-tetrahydro-, 8-naphthyridin-2-yl)ethyl)cyclobutyl)homoserine]	250 to 1000 nM	–
CCC(CC)CC(=O)N[C@H](CCO[C@H]1C[C@H](CCc2ccc3c(n2)NCCC3)C1)C(=O)O [Compound 59, N-(3-ethylpentanoyl)-O-(trans-3-(2-(5,6,7,8-tetrahydro-1,8-naphthyridin-2-yl)ethyl)cyclobutyl)-D-homoserine]	> 1000 nM	–
O=C(NC(CCO[C@H]1C[C@H](CCc2ccc3c(n2)NCCC3)C1)C(=O)O)c1cccc(-c2cncs2)c1 (stereo partly drawn) [Compound 61, O-(trans-3-(2-(5,6,7,8-tetrahydro-1,8-naphthyridin-2-yl)ethyl)cyclobutyl)-N-(3-(thiazol-5-yl)benzoyl)homoserine]	–	IC50 (listed as 61*): > 1000 nM
O=C(NC(CCO[C@H]1C[C@H](CCc2ccc3c(n2)NCCC3)C1)C(=O)O)c1cccc(-c2cncs2)c1 (stereo partly drawn) [Compound 65, O-(trans-3-(2-(5,6,7,8-tetrahydro-1,8-naphthyridin-2-yl)ethyl)cyclobutyl)-N-(3-(thiazol-5-yl)benzoyl)homoserine]	–	IC50 (listed as 65**): < 50 nM
O=C(N[C@@H](CCO[C@H]1C[C@@H](CCc2ccc3c(n2)NCCC3)C1)C(=O)O)c1ccncc1 [Compound 68, N-isonicotinoyl-O-(cis-3-(2-(5,6,7,8-tetrahydro-1,8-naphthyridin-2-yl)ethyl)cyclobutyl)homoserine]	250 to 1000 nM	–
O=C(N[C@@H](CCO[C@H]1C[C@@H](CCc2ccc3c(n2)NCCC3)C1)C(=O)O)c1cccc(-c2cncs2)c1 [Compound 69, O-(cis-3-(2-(5,6,7,8-tetrahydro-1,8-naphthyridin-2-yl)ethyl)cyclobutyl)-N-(3-(thiazol-5-yl)benzoyl)homoserine]	250 to 1000 nM	–
O=C(O)C(CCO[C@H]1C[C@@H](CCc2ccc3c(n2)NCCC3)C1)NC(=O)[C@@H](CO)c1ccccc1 (stereo partly drawn) [Compound 71, N—((R)-3-hydroxy-2-phenylpropanoyl)-O-(cis-3-(2-(5,6,7,8-tetrahydro-1,8-naphthyridin-2-yl)ethyl)cyclobutyl)homoserine]	> 1000 nM	–
O=C(O)C(CCOCCCCc1ccc2c(n1)NCCC2)NC(=O)[C@@H](O)c1ccccc1 (stereo partly drawn) [Compound 74, N—((S)-2-hydroxy-2-phenylacetyl)-O-(4-(5,6,7,8-tetrahydro-1,8-naphthyridin-2-yl)butyl)homoserine]	> 1000 nM	–
O=C(O)C(CCOCCCCc1ccc2c(n1)NCCC2)NC(=O)[C@@H](O)c1ccccc1 (stereo partly drawn) [Compound 75, N—((S)-2-hydroxy-2-phenylacetyl)-O-(4-(5,6,7,8-tetrahydro-1,8-naphthyridin-2-yl)butyl)homoserine]	250 to 1000 nM	–
O=C(O)[C@H](CCOCCCCc1ccc2c(n1)NCCC2)NC(=O)[C@H](O)c1ccccc1 [Compound 76, N—((R)-2-hydroxy-2-phenylacetyl)-O-(4-(5,6,7,8-tetrahydro-1,8-naphthyridin-2-yl)butyl)homoserine]	250 to 1000 nM	–
O=C(O)C(CCO[C@H]1C[C@H](CCc2ccc3c(n2)NCCC3)C1)NC(=O)[C@@H](O)c1ccccc1 (stereo partly drawn) [Compound 78, N—((S)-2-hydroxy-2-phenylacetyl)-O-(trans-3-(2-(5,6,7,8-tetrahydro-1,8-naphthyridin-2-yl)ethyl)cyclobutyl)homoserine]	> 1000 nM	–
O=C(O)C(CCO[C@H]1C[C@H](CCc2ccc3c(n2)NCCC3)C1)NC(=O)[C@H](O)c1ccccc1 (stereo partly drawn) [Compound 81, N—((R)-2-hydroxy-2-phenylacetyl)-O-(trans-3-(2-(5,6,7,8-tetrahydro-1,8-naphthyridin-2-yl)ethyl)cyclobutyl)homoserine]	> 1000 nM	–
O=C(O)C(CCO[C@H]1C[C@H](CCc2ccc3c(n2)NCCC3)C1)NC(=O)C1(c2ccccc2)CC1 (stereo partly drawn) [Compound 82, N-(1-phenylcyclopropane-1-carbonyl)-O-(trans-3-(2-(5,6,7,8-tetrahydro-1,8-naphthyridin-2-yl)ethyl)cyclobutyl)homoserine]	250 to 1000 nM	–
CC(C)(C(=O)NC(CCO[C@H]1C[C@H](CCc2ccc3c(n2)NCCC3)C1)C(=O)O)c1ccccc1 (stereo partly drawn) [Compound 83, N-(2-methyl-2-phenylpropanoyl)-O-(trans-3-(2-(5,6,7,8-tetrahydro-1,8-naphthyridin-2-yl)ethyl)cyclobutyl)homoserine]	–	IC50 (listed as 83*): > 1000 nM
CC(C)(Cc1ccccc1)C(=O)NC(CCO[C@H]1C[C@H](CCc2ccc3c(n2)NCCC3)C1)C(=O)O (stereo partly drawn) [Compound 85, N-(2,2-dimethyl-3-phenylpropanoyl)-O-(trans-3-(2-(5,6,7,8-tetrahydro-1,8-naphthyridin-2-yl)ethyl)cyclobutyl)homoserine]	250 to 1000 nM	–
CC(C)(C)OC(=O)NC(CCO[C@H]1C[C@H](CCc2ccc3c(n2)NCCC3)C1)C(=O)O (stereo partly drawn) [Compound 86, N-(tert-butoxycarbonyl)-O-(trans-3-(2-(5,6,7,8-tetrahydro-1,8-naphthyridin-2-yl)ethyl)cyclobutyl)homoserine]	250 to 1000 nM	–
CC(C)(C(=O)NC(CCO[C@H]1C[C@H](CCc2ccc3c(n2)NCCC3)C1)C(=O)O)c1ccc(F)cc1 (stereo partly drawn) [Compound 87, N-(2-(4-fluorophenyl)-2-methylpropanoyl)-O-(trans-3-(2-(5,6,7,8-tetrahydro-1,8-naphthyridin-2-yl)ethyl)cyclobutyl)homoserine]	250 to 1000 nM	–
CC1(C(=O)NC(CCO[C@H]2C[C@H](CCc3ccc4c(n3)NCCC4)C2)C(=O)O)COC1 (stereo partly drawn) [Compound 88, N-(3-methyloxetane-3-carbonyl)-O-(trans-3-(2-(5,6,7,8-tetrahydro-1,8-naphthyridin-2-yl)ethyl)cyclobutyl)homoserine]	50 to 250 nM	–

More lines, main results first:

IC50	Compound	further results
50 to 250 nM	O=C(N[C@@H](CCO[C@H]1C[C@H](CCc2ccc3c(n2)NCCC3)C1)C(=O)O)c1cccc(C2CC2)c1 [Compound 56, N-(3-cyclopropylbenzoyl)-O-(trans-3-(2-(5,6,7,8-tetrahydro-1,8-naphthyridin-2-yl)ethyl)cyclobutyl)homoserine]	–
50 to 250 nM	O=C(NC(CCO[C@H]1C[C@H](CCc2ccc3c(n2)NCCC3)C1)C(=O)O)c1cccc(F)c1Cl (stereo partly drawn) [Compound 60, N-(2-chloro-3-fluorobenzoyl)-O-(trans-3-(2-(5,6,7,8-tetrahydro-1,8-naphthyridin-2-yl)ethyl)cyclobutyl)homoserine]	–
< 50 nM	CCC(CC)CC(=O)NC(CCO[C@H]1C[C@H](CCc2ccc3c(n2)NCCC3)C1)C(=O)O (stereo partly drawn) [Compound 63, N-(3-ethylpentanoyl)-O-(trans-3-(2-(5,6,7,8-tetrahydro-1,8-naphthyridin-2-yl)ethyl)cyclobutyl)homoserine]	–
< 50 nM	O=C(NC(CCO[C@H]1C[C@H](CCc2ccc3c(n2)NCCC3)C1)C(=O)O)c1cccc(F)c1Cl (stereo partly drawn) [Compound 64, N-(2-chloro-3-fluorobenzoyl)-O-(trans-3-(2-(5,6,7,8-tetrahydro-1,8-naphthyridin-2-yl)ethyl)cyclobutyl)homoserine]	–
50 to 250 nM	O=C(N[C@@H](CCO[C@H]1C[C@@H](CCc2ccc3c(n2)NCCC3)C1)C(=O)O)c1ccc(F)c(F)c1 [Compound 66, N-(3,4-difluorobenzoyl)-O-(cis-3-(2-(5,6,7,8-tetrahydro-1,8-naphthyridin-2-yl)ethyl)cyclobutyl)homoserine]	–
50 to 250 nM	CCC(CC)CC(=O)N[C@@H](CCO[C@H]1C[C@@H](CCc2ccc3c(n2)NCCC3)C1)C(=O)O [Compound 67, N-(3-ethylpentanoyl)-O-(cis-3-(2-(5,6,7,8-tetrahydro-1,8-naphthyridin-2-yl)ethyl)cyclobutyl)homoserine]	–
50 to 250 nM	O=C(O)C(CCO[C@H]1C[C@@H](CCc2ccc3c(n2)NCCC3)C1)NC(=O)[C@@H](CO)c1ccccc1 (stereo partly drawn) [Compound 70, N—((R)-3-hydroxy-2-phenylpropanoyl)-O-(cis-3-(2-(5,6,7,8-tetrahydro-1,8-naphthyridin-2-yl)ethyl)cyclobutyl)homoserine]	–
< 50 nM	Cn1cc(-c2cccc(C(=O)NC(CCO[C@H]3C[C@H](CCc4ccc5c(n4)NCCC5)C3)C(=O)O)c2)cn1 (stereo partly drawn) [Compound 72]	–
50 to 250 nM	Cn1cc(-c2cccc(C(=O)NC(CCOCCCCc3ccc4c(n3)NCCC4)C(=O)O)c2)cn1 (stereo not drawn) [Compound 73, N-(3-(1-methyl-1H-pyrazol-4-yl)benzoyl)-O-(4-(5,6,7,8-tetrahydro-1,8-naphthyridin-2-yl)butyl)homoserine]	–
50 to 250 nM	O=C(O)C(CCO[C@H]1C[C@H](CCc2ccc3c(n2)NCCC3)C1)NC(=O)[C@@H](O)c1ccccc1 (stereo partly drawn) [Compound 79, N—((S)-2-hydroxy-2-phenylacetyl)-O-(trans-3-(2-(5,6,7,8-tetrahydro-1,8-naphthyridin-2-yl)ethyl)cyclobutyl)homoserine]	–
50 to 250 nM	O=C(O)C(CCO[C@H]1C[C@H](CCc2ccc3c(n2)NCCC3)C1)NC(=O)[C@H](O)c1ccccc1 (stereo partly drawn) [Compound 80, N—((R)-2-hydroxy-2-phenylacetyl)-O-(trans-3-(2-(5,6,7,8-tetrahydro-1,8-naphthyridin-2-yl)ethyl)cyclobutyl)homoserine]	–
< 50 nM	O=C(O)C(CCO[C@H]1C[C@H](CCc2ccc3c(n2)NCCC3)C1)NC(=O)C1(c2ccccc2)CCC1 (stereo partly drawn) [Compound 84, N-(1-phenylcyclobutane-1-carbonyl)-O-(trans-3-(2-(5,6,7,8-tetrahydro-1,8-naphthyridin-2-yl)ethyl)cyclobutyl)homoserine]	–
